How the values were obtained:
[1] = Hepatocyte stability, human; type: in vitro ADME; conditions: for half-life at 1 h, 1 µM / hepatocyte CLint at 1 h, 1 µM: human, cryopreserved human hepatocytes; for half-life at 1 h, 1 µM: read-out: hepatocytic stability human t1/2; for hepatocyte CLint at 1 h, 1 µM: after 60 min in HH, read-out: hepatocytic stability human, CLint
Description: (§1) Cryopreserved hepatocytes (human and mouse) were used to analyze the stability of the compounds. Hepatocytes (0.5 × 10^6 cells/mL in Williams E medium supplemented with 2 mM L-glutamine and 25 mM N-2-hydroxyethylpiperazin-Ń-ethanesulfonic acid (HEPES)) were preincubated at 37 °C. […] At the appropriate time points, the reactions were stopped by transferring into acetonitrile. After protein precipitation by centrifugation at 3000 rpm for 20 min at 4 °C, the sample supernatants were analyzed by LC–MS/MS analysis (control compounds were included). The elimination rate constant was determined from the ratio of the ln peak area to time. Half-life (t1/2) and intrinsic clearance (CLint) were calculated using the appropriate formulas.

K562-R cells [2] = assay: Chemosensitizing: metabolic activity of K562-R cells cotreated with imatinib (modified MTT assay); type: cell-based, human; conditions: for chemosensitizing effect, concentration-dependent analysis: 0.5–8 μM (transporter inhibitors 10 to 0.5 μM); for rate of imatinib-triggered cell death: at 10 μM; for metabolic activity of K562-R cells, combination with imatinib: compound 10 μM + imatinib 1 μM
Description: (§2) The potential reduction in cell viability was determined using the modified MTT assay.
conc. 10 to 0.5 μM) over 72 h (Figure 3D).
(§3) COS-7 (2 × 10^3 cells per well), IGROV-1 SP (2.5 × 10^3 cells per well), A2780 V SP (1.5 × 10^3 cells per well), PC3-DR (4 × 10^3 cells per well), and DU145-DR (3 × 10^3 cells per well) cells were seeded in 96-well plates in triplicates and after 24 h, the compounds were added at the respective concentrations. K562-R and K562 cells (2 × 10^4 cells per well), were treated with the compounds 2 h after seeding. […] A modified MTT colorimetric assay (EZ4U kit, Biomedica) was used to determine the metabolic activity of the tested cells, according to the manufacturer’s instructions. Absorbance was measured and the optical density of the respective FCS-containing medium and of the substrate was subtracted to exclude nonspecific staining. Metabolic activity in the absence of the compounds (CTR, DMSO) was set to 100% as reference.

[3] = system: A2780 V SP cells (ABCB1+); assay: SP analysis (DCV, flow cytometry) in A2780 V SP cells; type: cell-based, human; conditions: 10 μM
Source text: (§4) In recent studies, we described the side population (SP) phenotype as a marker that defines a heterogeneous cellular compartment with stem cell-characteristics in various cancer cell lines derived from solid tumors, such as ovarian cancer, breast cancer, and lung cancer.[26],[27]

PC3-DR cells = assay: Chemosensitizing to docetaxel: metabolic activity of PC3-DR cells (MTT); type: cell-based, human; conditions: compound 10 μM + DTX 12.5 nM, 72 h
Description: The chemosensitizing efficacy was investigated in the ovarian and prostate cancer cell lines using the above-described metabolic activity assay. Paclitaxel (PTX) served as a reference (CTR) in A2780 V SP and IGROV-1 SP cells and docetaxel (DTX) in PC3-DR and D145-DR cells.
as §3

[4] = system: IGROV-1 SP cells (ABCB1+); assay: SP analysis (DCV, flow cytometry) in IGROV-1 SP cells; type: cell-based, human; conditions: 10 μM
Source text: as §4

[5] = Turbidimetric aqueous solubility; type: physicochemical; conditions: phosphate buffered saline, estimated precipitation range, PBS pH 7.4, 37 °C
MCF7 cells (ABCG2+) = assay: SP analysis (DCV, flow cytometry) in MCF7 cells; type: cell-based, human; conditions: MCF7, 10 μM
Source text: as §4

[6] = Hepatocyte stability, mouse; type: in vitro ADME; conditions: for half-life at 1 h, 1 µM / hepatocyte CLint at 1 h, 1 µM: mouse, cryopreserved mouse hepatocytes; for half-life at 1 h, 1 µM: read-out: hepatocytic stability mouse t1/2; for hepatocyte CLint at 1 h, 1 µM: after 60 min in MH, read-out: hepatocytic stability mouse, CLint
Description: as §1

DU145-DR cells (ABCB1+) = assay: SP analysis (DCV, flow cytometry) in DU145-DR cells; type: cell-based, human; conditions: 10 μM
Source text: as §4

[7] = system: primary human CML patient samples; assay: Colony forming cell (CFC) assay, primary CML patient samples; type: cell-based; conditions: together with 1 μM of imatinib, once at the beginning of the 14 day assay; compound 10 μM
Source text: Frozen peripheral blood mononuclear cells (PBMC) from TKI naïve CML patients and healthy controls were used for the CFC assay as described previously.[46] Briefly, thawed cells were resuspended a semisolid medium (Enriched MethocCult H4435, Stem Cell Technologies) supplemented with the respective compounds and cultured in small culture dishes for 2 weeks. Colonies were counted using an inverted microscope.

[8] = target: ABCB1 transporter in K562-R cells (Homo sapiens, UniProt P08183); assay: Side population (SP) analysis, DCV staining, flow cytometry; conditions: 10 μM
Sequence of ABCB1 transporter in K562-R cells (P08183 whole entry): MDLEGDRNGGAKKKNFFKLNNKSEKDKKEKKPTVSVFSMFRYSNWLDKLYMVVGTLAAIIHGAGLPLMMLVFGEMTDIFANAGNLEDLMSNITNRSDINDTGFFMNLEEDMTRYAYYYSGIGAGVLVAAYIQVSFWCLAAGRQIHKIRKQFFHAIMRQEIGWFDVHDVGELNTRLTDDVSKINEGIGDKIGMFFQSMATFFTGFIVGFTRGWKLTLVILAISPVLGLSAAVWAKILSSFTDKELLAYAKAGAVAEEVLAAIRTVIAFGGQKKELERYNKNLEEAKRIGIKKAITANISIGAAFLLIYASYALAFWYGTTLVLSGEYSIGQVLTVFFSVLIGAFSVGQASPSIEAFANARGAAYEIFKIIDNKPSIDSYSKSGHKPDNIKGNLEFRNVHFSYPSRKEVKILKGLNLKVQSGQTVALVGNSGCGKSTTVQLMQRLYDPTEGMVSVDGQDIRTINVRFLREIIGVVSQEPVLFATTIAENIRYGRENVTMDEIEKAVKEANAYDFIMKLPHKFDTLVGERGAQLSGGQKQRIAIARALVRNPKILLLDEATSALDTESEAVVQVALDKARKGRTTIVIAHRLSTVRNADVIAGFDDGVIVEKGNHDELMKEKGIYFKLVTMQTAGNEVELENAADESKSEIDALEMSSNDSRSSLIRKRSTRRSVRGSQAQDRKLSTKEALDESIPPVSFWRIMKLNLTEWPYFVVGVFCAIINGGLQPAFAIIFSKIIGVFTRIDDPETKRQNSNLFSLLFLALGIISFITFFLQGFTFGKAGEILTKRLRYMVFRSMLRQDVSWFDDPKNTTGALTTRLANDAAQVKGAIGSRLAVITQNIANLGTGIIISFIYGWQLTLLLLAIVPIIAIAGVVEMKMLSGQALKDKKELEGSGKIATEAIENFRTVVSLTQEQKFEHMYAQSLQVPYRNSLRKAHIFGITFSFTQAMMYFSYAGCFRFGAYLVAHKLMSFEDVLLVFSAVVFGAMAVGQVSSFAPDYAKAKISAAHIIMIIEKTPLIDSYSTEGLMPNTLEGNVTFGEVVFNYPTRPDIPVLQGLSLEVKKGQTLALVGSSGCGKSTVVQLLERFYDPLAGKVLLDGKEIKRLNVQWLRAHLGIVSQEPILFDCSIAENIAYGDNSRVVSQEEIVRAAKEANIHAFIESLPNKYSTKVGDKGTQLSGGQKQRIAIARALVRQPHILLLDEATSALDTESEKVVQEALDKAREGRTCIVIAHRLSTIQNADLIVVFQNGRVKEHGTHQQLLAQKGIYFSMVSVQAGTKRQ
Description: SP analyses were performed as previously described[45] on a LSRFortessa flow cytometer (BD Biosciences, Vienna, Austria). Briefly, 1 × 10^6 cells/mL were stained with 10 μM Vybrant DyeCycleTM Violet (DCV; Molecular Probes, Eugene, OR) in the presence or absence of the investigated compounds for 90 min at 37 °C. […] Subsequently, the cells were washed and immediately analyzed using flow cytometry. The FlowJo 9.6 software was used for data analyses (Tree Star Software, Ashland, CA).

K562-R cells [9] = assay: Metabolic activity of K562-R cells, compounds alone (modified MTT assay); type: cell-based, human; conditions: 10 μM, 72 h, without imatinib; vehicle control = 100%
Description: as §2
First, the compounds (10 μM) were applied alone to evaluate their effects per se.
as §3

[10] = Microsomal metabolic stability, human; type: in vitro ADME; conditions: for metabolic stability Human, % of compound remaining: after 30 min in HLM, 1 μM; for half-life at 1 µM: human, pooled human liver microsomes, pH 7.4, HLM, read-out: metabolic stability Human t1/2
Description: (§5) The stability of the compounds was assessed in pooled human and mouse liver microsomes (final protein concentration 0.5 mg/mL). […] At the appropriate time points, the reactions were stopped by transferring into acetonitrile. After protein precipitation, by centrifugation at 3000 rpm for 20 min at 4 °C, the sample supernatants were analyzed using LC–MS/MS analysis (control compounds were included). The elimination rate constant was determined from the ratio of the ln peak area to time. Half-life (t1/2) and intrinsic clearance (CLint) were calculated using the appropriate formulas.

[11] = Microsomal metabolic stability, mouse; type: in vitro ADME; conditions: for metabolic stability Mouse, % of compound remaining: after 30 min in MLM, 1 μM; for half-life at 1 µM: mouse, pooled mouse liver microsomes, pH 7.4, MLM, read-out: metabolic stability Mouse t1/2
Description: as §5

Structure (SMILES)	half-life at 1 h, 1 µM ([1]; HH) [min]	hepatocyte CLint at 1 h, 1 µM [1] [µL/min/1e6 cells]	chemosensitizing effect, concentration-dependent analysis (K562-R cells [2]; K562-R, + imatinib 1 μM, 72 h)	rate of imatinib-triggered cell death (K562-R cells [2]; K562-R) [%]	metabolic activity of K562-R cells, combination with imatinib (K562-R cells [2]; 72 h)	effect on SP phenotype [3]	chemosensitizing to DTX (antimetabolic activity) (PC3-DR cells)	effect on SP phenotype [4]	solubility at 2 h [5] [µM]	effect on SP phenotype (MCF7 cells (ABCG2+))	half-life at 1 h, 1 µM ([6]; MH) [min]	hepatocyte CLint at 1 h, 1 µM [6] [µL/min/1e6 cells]	effect on SP phenotype (DU145-DR cells (ABCB1+))	number of colonies (CFC) [7]	effect on SP phenotype / ABCB1 activity [8]	metabolic activity of K562-R cells, compound alone (K562-R cells [9])	metabolic stability Human, % of compound remaining [10] [%]	half-life at 1 µM [10] [min]	metabolic stability Mouse, % of compound remaining [11] [%]	half-life at 1 µM [11] [min]	further results
CCCc1nc2c(C)cc(-c3nc4ccccc4n3C)cc2n1Cc1ccc(-c2ccccc2C(=O)OC)cc1 [7b, Methyl 4′-((1,7′-dimethyl-2′-propyl-1H,3′H-[2,5′-bibenzo[d]imidazole]-3′-yl)methyl)-[1,1′-biphenyl]-2-carboxylate]	18.4	75.2	strongly sensitized the cells to imatinib therapy	> 85	8–24%	eliminated the SP phenotype	only marginally increased the antimetabolic activity of DTX	eliminated the SP phenotype	< 6.5	eliminated the SP phenotype	13.8	101	eliminated the SP phenotype	significantly reduced the number of colonies	completely repressed the SP phenotype	inactive	26.3	16.2	3	6	
CCCc1nc2c(C)cc(-c3nc4ccccc4n3C)cc2n1Cc1ccc(-c2ccccc2C(N)=O)cc1 [7c, 4′-((1,7′-Dimethyl-2′-propyl-1H,3′H-[2,5′-bibenzo[d]imidazole]-3′-yl)methyl)-[1,1′-biphenyl]-2-carboxamide]	100	13.8	strongly sensitized the cells to imatinib therapy	> 85	8–24%	eliminated the SP phenotype	most active chemosensitizer	eliminated the SP phenotype	< 6.5	eliminated the SP phenotype	44.9	30.9	eliminated the SP phenotype	significantly reduced the number of colonies	completely repressed the SP phenotype	inactive	58.1	45.1	13.3	8.8	clearance class ([1]; HH): medium clearance; EC50 (K562-R cells [2]; K562-R, + imatinib 1 μM, 72 h, read-out: SC50 (drug concentration eliciting 50% of the maximum sensitizing effect)): 1850 nM; clearance class ([6]; MH): high clearance

From article PMC11726677, “Eradication of Therapy-Resistant Cancer Stem Cells by Novel Telmisartan Derivatives” (Journal of Medicinal Chemistry, 2024)
